Test results reported in patent US20240299299A1, “COMPOSITIONS AND METHODS FOR INCREASING THE EFFICACY OF IMMUNOTHERAPIES AND VACCINES” (The Regents of the University of Michigan, priority 2021, published 2024).
One block for each molecule: values may come before it.

Legend:
OT-I CD8+ T cells [1] = test: In vitro central memory (Tcm) differentiation of OT-I CD8+ T cells activated with SIINFEKL peptide and IL-2 with metabolites; type: cell-based, mice; conditions: day 8; metabolite-supplemented medium (arginine 3 mM, 3-methylhistidine 3 mM, DHB 100 μM, sodium ferulate 100 μM)
Protocol: (§1) FIG. 2: a) OT-I CD8+ T cells were cultured with different metabolites in vitro as indicated, b,c) shown is the frequency of CD44^+CD62L^+ Tcm CD8+ T cells on day 8. d) OT-I CD8+ T cells were activated with α-CD3/α-CD28 antibodies in presence of metabolites as indicated and shown is the Tcm CD8+ T cells on day 7. Data represent the mean±s.e.m. (n=5).
(§2) Splenocytes from OT-I mice were obtained aseptically. The cells were cultured in 96-well plates (1×10^5 cells per well). For Tcm differentiation study, cells were activated with SIINFEKL peptide (4×10^−9M) in the presence of various metabolites (arginine: 3 mM; 3-methylhistidine: 3 mM; N-acetylneuraminate: 100 μM; disodium sebacate: 100 μM; DHB: 100 μM; pantothenate: 100 μM; γ-aminobutyric acid: 100 μM; glycerol: 100 μM; AICAR: 100 μM, sodium ferulate: 100 μM) for 3 days. Then cells were washed three times with T-cell medium and further cultured with IL-2 (10 ng ml^−1; PeproTech) in the presence of metabolites for 5 days. The cells were then washed twice and re-activated with SIINFEKL peptide (10 μM) for 2 h. The suspension cells were collected, blocked with CD16/32 antibody and stained with the fixable viability dye eFluor 450, FITC-CD44 rat anti-human/mouse and PE-CD62L monoclonal antibody. To test if the central memory CD8+ T cells differentiation is dependent on dendritic cells, CD8 T cells isolated from the spleen in OT-I mice were incubated in the 96-well plate, which was precoated with anti-hamster IgG antibody. […] (1 μg mL^−1) and IL-2 (100 U mL^−1) were added into each well in the presence of 3-methylhistidine (3 mM), DHB (100 μM), or sodium ferulate (100 μM) for 2 days. Then cells were washed for three times to remove α-CD3/α-CD28 antibodies and further incubated with metabolites and IL-2 (10 ng ml^−1) for 5 days. Thereafter, cells were collected for central memory CD8^+ T cells analysis. For CD8^+ T cells survival study, cells were activated with antigen peptide as above, following with thoroughly washing, and incubation in presence of IL-2 for 2 days. Metabolites were added during this incubation (arginine: 3 mM, 1 mM; 3-methylhistidine: 3 mM, 1 mM, 500 μM, 100 μM; N-acetylneuraminate: 100 μM; disodium sebacate: 100 μM; DHB: 100 μM, 50 μM, 20 μM; pantothenate: 100 μM; γ-aminobutyric acid: 100 μM; glycerol: 100 μM; AICAR: 100 μM). Then cells were further incubated in absence of both IL-2 and metabolites for 36 h to induce the apoptosis/dead. For Tcf1^+CD8^+ differentiation study, cells were activated with antigen peptide as above, followed by thoroughly washing, and incubation with metabolites in presence of IL-2 for 3 days. […] Tcf1^+CD8^+, CD44^+CD62L^+CD8^+ and survival (stained with Annexin V-APC and PI) T cells were detected via flow cytometry.

OT-I CD8+ T cells [2] = test: Tcm differentiation of isolated OT-I CD8+ T cells activated with α-CD3/α-CD28 in the absence of dendritic cells; type: cell-based, mice; conditions: α-CD3/α-CD28 activation; 3-methylhistidine 3 mM, DHB 100 μM; day 7
Protocol: as §1
Splenocytes from OT-I mice were obtained aseptically. The cells were cultured in 96-well plates (1×10^5 cells per well). For Tcm differentiation study, cells were activated with SIINFEKL peptide (4×10^−9M) in the presence of various metabolites (arginine: 3 mM; 3-methylhistidine: 3 mM; N-acetylneuraminate: 100 μM; disodium sebacate: 100 μM; DHB: 100 μM; pantothenate: 100 μM; γ-aminobutyric acid: 100 μM; glycerol: 100 μM; AICAR: 100 μM, sodium ferulate: 100 μM) for 3 days. Then cells were washed three times with T-cell medium and further cultured with IL-2 (10 ng ml^−1; PeproTech) in the presence of metabolites for 5 days. The cells were then washed twice and re-activated with SIINFEKL peptide (10 μM) for 2 h. The suspension cells were collected, blocked with CD16/32 antibody and stained with the fixable viability dye eFluor 450, FITC-CD44 rat anti-human/mouse and PE-CD62L monoclonal antibody. […] Tcf1^+CD8^+, CD44^+CD62L^+CD8^+ and survival (stained with Annexin V-APC and PI) T cells were detected via flow cytometry.

OT-I CD8+ T cells [3] = test: Tcf1+CD8+ differentiation of OT-I T cells with metabolites; type: cell-based, mice; conditions: day 6
Protocol: FIG. 3: a) OT-I CD8+ T cells were cultured with different metabolites in vitro as indicated, b,c) shown are the frequency of the Tcf1^+CD8+ T cells and the representative flow cytometry plots on day 6. Data represent the mean±s.e.m. (n=5).
as §2, with “days.” for “days. Metabolites were added during this incubation (arginine: 3 mM, 1 mM; 3-methylhistidine: 3 mM, 1 mM, 500 μM, 100 μM; N-acetylneuraminate: 100 μM; disodium sebacate: 100 μM; DHB: 100 μM, 50 μM, 20 μM; pantothenate: 100 μM; γ-aminobutyric acid: 100 μM; glycerol: 100 μM; AICAR: 100 μM). Then cells were further incubated in absence of both IL-2 and metabolites for 36 h to induce the apoptosis/dead. For Tcf1^+CD8^+ differentiation study, cells were activated with antigen peptide as above, followed by thoroughly washing, and incubation with metabolites in presence of IL-2 for 3 days.”

OT-I CD8+ T cells [4] = test: CD8+ T cell survival upon IL-2 withdrawal (Annexin V/PI); type: cell-based, mice; conditions: dependent on the dose of metabolites
Protocol: FIG. 4: a) OT-I CD8+ T cells were cultured with different metabolites in vitro as indicated, b,c) shown are the level of survival CD8+ T cells (Annexin V^−PI^−) as well as the representative flow cytometry plots on day 5.5. Data represent the mean±s.e.m. (n=5).
as §2, with “days.” for “days. Metabolites were added during this incubation (arginine: 3 mM, 1 mM; 3-methylhistidine: 3 mM, 1 mM, 500 μM, 100 μM; N-acetylneuraminate: 100 μM; disodium sebacate: 100 μM; DHB: 100 μM, 50 μM, 20 μM; pantothenate: 100 μM; γ-aminobutyric acid: 100 μM; glycerol: 100 μM; AICAR: 100 μM). Then cells were further incubated in absence of both IL-2 and metabolites for 36 h to induce the apoptosis/dead. For Tcf1^+CD8^+ differentiation study, cells were activated with antigen peptide as above, followed by thoroughly washing, and incubation with metabolites in presence of IL-2 for 3 days.”

[5] = tested on: CT26 colon carcinoma cells; test: CT26 tumor model, intratumoral metabolites plus α-PD-1; type: in vivo, BALB/c mice
Protocol: FIG. 5: a) Therapeutic treatment regimen. BALB/c mice were s.c. inoculated with 1.5×10^5 CT26 colon carcinoma cells. The candidate metabolites were injected intratumorally every other day, 100 μg α-PD-1 was i.p. injected on days 9, 12, 16 and 20. b) Average tumor growth, c) individual tumor growth, and d) overall Kaplan-Meier survival are shown. Data represent the mean±s.e.m. (n=5).
(§3) Animals were cared for following the federal, state and local guidelines. All work conducted on animals was in accordance with and approved by the Institutional Animal Care and Use Committee (IACUC). Female (6-8 weeks old) BALB/c mice from Jackson Laboratory were inoculated with 1.5×10^5 CT26 cells per mouse on the right flank by s.c. injection. Tumor-bearing mice were randomly assigned to different treatment groups. For intratumoral injection study, the mice were injected with 3-methylhistidine (dose: 1 mg per mouse), sodium hippurate (dose: 1 mg per mouse), disodium sebacate (dose: 1 mg per mouse), sodium ferulate (dose: 1 mg per mouse), or DHB (dose: 0.5 mg per mouse) in 40 μL PBS buffer for every other day. The mice were i.p. injected with α-PD-1 antibody (100 μg per dose; clone RMP1-14, Bioxcell) on days 9, 12, 16 and 20 post tumor inoculation. For oral administration study, the mice were injected with 3-methylhistidine (dose: 3 mg per mouse), sodium hippurate (dose: 3 mg per mouse), disodium sebacate (dose: 3 mg per mouse), sodium ferulate (dose: 3 mg per mouse), or DHB (dose: 2.4 mg per mouse) in PBS buffer for 3 times every 4 days. α-PD-1 was injected on days 10, 14, 18 and 22. The tumor size was measured, and the tumor volume was calculated as ½×(length×width^2). Tumor-bearing mice were euthanized when the tumor size reached 1.5 cm in any diameter or when the animals became moribund with severe weight loss (>20%) or tumor ulceration.

[6] = tested on: CT26 colon carcinoma cells; test: CT26 tumor model, orally administered metabolites plus α-PD-1; type: in vivo, BALB/c mice; conditions: oral gavage 3 times every 4 days (DHB 2.4 mg, 3-methylhistidine 3 mg per mouse) plus α-PD-1 i.p.
Protocol: FIG. 6: a) Therapeutic treatment regimen. BALB/c mice were s.c. inoculated with 1.5×10^5 CT26 colon carcinoma cells. The candidate agents were orally administrated 3 times every 4 days, 100 μg α-PD-1 was injected i.p. on days 10, 14, 18 and 22. b) Average tumor growth, c) individual tumor growth. Data represent the mean±s.e.m. (n=4-5).
as §3, with “For oral administration study, the mice were injected with 3-methylhistidine (dose: 3 mg per mouse), sodium hippurate (dose: 3 mg per mouse), disodium sebacate (dose: 3 mg per mouse), sodium ferulate (dose: 3 mg per mouse), or DHB (dose: 2.4 mg per mouse) in PBS buffer for 3 times every 4 days. α-PD-1 was injected on days 10, 14, 18 and 22.” left out, “Tumor-bearing mice were euthanized when the tumor size reached 1.5 cm in any diameter or when the animals became moribund with severe weight loss (>20%) or tumor ulceration.” left out

[7] = tested on: CT26 colon carcinoma cells; test: CT26 tumor model, metabolite monotherapy i.p. without α-PD-1; type: in vivo, BALB/c mice; conditions: monotherapy without α-PD-1 IgG; i.p. DHB 2.4 mg or 3-methylhistidine 3 mg per dose
Protocol: FIG. 7: a-d) In vitro cell viability of DHB at various concentrations in activated T cells, MC38, B16F10, and CT26 tumor cells. e) BALB/c mice were s.c. inoculated with 1.5×10^5 CT26 colon carcinoma cells. DHB (2.4 mg per dose) or 3-methylhistidine (3 mg per dose) was i.p. injected 3 times every 4 days, 100 μg α-PD-1 was i.p. injected on days 11, 15, and 20. Shown is the average tumor growth. Data represent the mean±s.e.m. (n=4-5).

cancer cells = conditions: reported in literature (Eroglu et al.); cited from earlier work
tumor = conditions: reported in literature (Geiger et al.); cited from earlier work
[8] = Encapsulation of DHB-based prodrugs in lipid-based formulation; type: physicochemical; conditions: oleic acid, Tween 80, PBS emulsion
Protocol: The DHB-based prodrugs were synthesized by the Medicinal Chemistry Core in University of Michigan. To prepare the formulation, the prodrug #201 or #905 (4 mg) was added to the mixture of oleic acid (45 μL) and Tween 80 (25 μL) and incubated overnight to equilibrate and allow the prodrug to dissolve. Then an aqueous phase consisting of PBS buffer was added, and the formulation emulsified by ultrasonication with an ultrasonic processor.

[9] = tested on: CT26 colon carcinoma cells; test: CT26 tumor model, oral prodrug-based lipid formulation plus α-PD-1; type: in vivo, BALB/c mice
Protocol: FIG. 9: a) Scheme showing the preparation of formulation encapsulating DHB prodrug. b) Therapeutic treatment regimen. BALB/c mice were s.c. inoculated with 1.5×10^5 CT26 colon carcinoma cells. The prodrug #201 (0.5 mg per dose) or #905 (1 mg per dose) were orally administrated every other day, respectively. 100 μg α-PD-1 was injected i.p. on days 11, 15, and 19. Shown are the (c) average tumor growth; AH1-specific CD8+ T cells in PBMCs on days (d) 18 and (e) 24. Tumor microenvironment analysis: (f) immune cells (CD45^+ cells) infiltration, (g) CD8^+ T cells, (h) CD44^+CD62L^+ central memory CD8+ T cells, and (i) AH1-specific CD8^+ T cells in tumor tissue on day 25. Data represent the mean±s.e.m. (n=5).
The CT26 tumor model was established as above. The formulation containing prodrug #201 or #905 was orally administered starting on day 8 and performed every other day. α-PD-1 antibody (100 μg per dose) was i.p. injected on days 11, 15, and 19. The PBMCs were obtained on days 18 and 24 and stained with PE-tagged peptide-MHC tetramer (H-2L^d-restricted SPSYVYHQF). Mice were euthanized on day 25 and tumor tissues were cut into small pieces and incubated with collagenase type IV (1 mg ml-1) and DNase I (0.1 mg ml-1) under gentle shaking. After 30 min, the cell suspension was filtered through a 70-μm strainer. The cells were washed with fluorescence-activated cell sorting (FACS) buffer and blocked with CD16/32 antibody. The cells were then stained with the designated antibodies: efluor450, FITC-CD44 rat anti-human/mouse, PE-CD62L monoclonal antibody, and APC-CD8 rat anti-mouse, PE-Tcf1/Tcf7 rabbit monoclonal antibody, APC-efluor780-Cd45 Rat anti Mouse (Clone: 30 F11), PE-AH1-specific tetramer. Cells were analyzed by flow cytometry.

SMILES: Cn1cncc1C[C@H](N)C(=O)O [3-methylhistidine]
differentiation of CD44+CD62L+ central memory CD8+ T cells (OT-I CD8+ T cells [1]): significantly increased the differentiation
induction of central memory CD8+ T cells in the absence of dendritic cells (OT-I CD8+ T cells [2]): can also induce central memory CD8^+ T cells
frequency of Tcf1+CD8+ T cells (OT-I CD8+ T cells [3]): increased the frequency
survival of activated CD8+ T cells (OT-I CD8+ T cells [4]): significantly increased the survival
systemic antitumor efficacy of α-PD-1 treatment and CT26 tumor growth ([5]; intratumoral every other day (DHB 0.5 mg, 3-methylhistidine 1 mg per mouse) plus α-PD-1 i.p.): improved the systemic antitumor efficacy of α-PD-1 treatment and slowed down the CT26 tumors growth
tumor-free mice on day 70 ([5]; intratumoral metabolite plus α-PD-1 i.p.): 80%
efficacy of α-PD-1 treatment [6]: improved the efficacy of α-PD-1 treatment
tumor growth in vivo [7]: did not inhibit the tumor growth

SMILES: COc1cc(/C=C/C(=O)O)ccc1O [Ferulic acid]
apoptosis in cancer cells (cancer cells): can induce apoptosis

SMILES: N=C(N)NCCC[C@H](N)C(=O)O [L-arginine]
differentiation of CD44+CD62L+ central memory CD8+ T cells (OT-I CD8+ T cells [1]): significantly increased the differentiation
survival of activated CD8+ T cells (OT-I CD8+ T cells [4]): significantly increased the survival
antitumor effect in vivo (tumor): improve the antitumor effect in vivo

encapsulation in lipid-based dose forms [8]: can be successfully encapsulated
SMILES: CCOC(=O)c1ccc(OC(=O)C(C)(C)C)c(OC(=O)C(C)(C)C)c1 [Prodrug #201, 4-(ethoxycarbonyl)-1,2-phenylene bis(2,2-dimethylpropanoate)]
infiltration of immune cells (CD45+ cells), AH1-specific CD8+ T cells and CD44+CD62L+ central memory CD8+ T cells in tumor tissue ([9]; oral formulation plus α-PD-1, day 25): promoted the infiltration
frequency of AH1-specific CD8+ T cells among PBMCs ([9]; oral formulation plus α-PD-1, days 18 and 24): increased the frequency
tumor growth ([9]; orally administered lipid formulation, 0.5 mg per dose every other day, plus α-PD-1): substantially slowed down the tumor growth
